Consider two compounds from patent US9849097B2, “Dosage forms containing terbutaline sulphate” (Jagotec AG, priority 2012, dated 2017).

Data set [1] in a line: accelerated stability study on the drug. The data set is classed as physicochemical. Particulars: 60° C. and 90% relative humidity for up to 4 weeks. Here is the method:
Thus, in the development of a terbutaline sulphate dosage form, the applicant carried out accelerated stability studies on the drug at a temperature of 60° C. and 90% relative humidity for up to 4 weeks.

For data set [2] the following is noted: oxidative degradation, aqueous solutions; cited from earlier work.

Consider `CC(C)(C)NCC(O)c1cc(O)cc(O)c1` (centres unmarked) [terbutaline sulphate], for which the degradation products result in data set [1] was “No degradation products were observed”.
Turning to `CC(C)(C)NCC(O)c1cc(O)cc(O)c1` (centres unmarked) [terbutaline], the “stability of drug substance” value in data set [2] is reported as “highly stable”.
